Laboratory results taken from US20230278972A1, “SUBSTITUTED HALOALKYL SULFONANILIDE HERBICIDES” (FMC Corporation, priority 2020, published 2023).

What was measured:
Assay type in all cases: in vivo
kochia (Bassia scoparia) [1] = assay: Test A1 preemergence, kochia
Summary of the method: (§1)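 Plants grown in pots of loam/sand mix; preemergence = soil-directed spray on seeded pots, postemergence = spray at 1–2 leaves, height 2–10 cm; test chemicals formulated in non-phytotoxic solvent with surfactant.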

kochia (Bassia scoparia) [2] = assay: Test A1 postemergence, kochia; conditions: for Kochia plant response rating: postemergence; for Plant response rating, Kochia: Postemergence
Summary of the method: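 Test compounds were formulated in a non-phytotoxic solvent mixture containing a surfactant. For preemergence, seeds sown in a loam soil–sand blend received a directed soil spray. For postemergence, potted plants in the same soil, 2 to 10 cm tall at the one- to two-leaf stage, were sprayed.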

[3] = system: Oat, Wild (wild oat, Avena fatua); assay: Test A1 preemergence, Oat, Wild
Summary of the method: as §1

soybean (Glycine max) = assay: Test A1 preemergence, soybean
Summary of the method: as §1

[4] = 31 g ai/ha, 0 to 100 scale (0 no effect, 100 complete control)
[5] = 125 g ai/ha, 0 to 100 scale, 0 no effect, 100 complete control
[6] = 125 g ai/ha, 0 to 100 scale (0 no effect, 100 complete control), 10 days
[7] = 125 g ai/ha, 0 to 100 scale (0 no effect, 100 complete control)
[8] = 500 g ai/ha, 0 to 100 scale (0 no effect, 100 complete control)
[9] = 31 g ai/ha, 0 to 100 scale (0 no effect, 100 complete control), 10 days

SMILES | Plant response rating, Kochia (kochia (Bassia scoparia) [1]; [4]) | Plant response rating, Kochia (kochia (Bassia scoparia) [1]; [5]) | Kochia plant response rating (kochia (Bassia scoparia) [2]; [4]) | Plant response rating, Kochia (kochia (Bassia scoparia) [2]; 125 g ai/ha, 0 to 100 scale) | Plant response rating, Oat, Wild [3, 4] | Plant response rating, Oat, Wild [3, 5] | Plant response rating, Soybean (soybean (Glycine max); [4]) | Plant response rating, Soybean (soybean (Glycine max); [5]) | Plant response rating, Kochia (kochia (Bassia scoparia) [2]; [6]) | Plant response rating, Kochia (kochia (Bassia scoparia) [1]; [7]) | Plant response rating, Oat, Wild [3, 7] | Plant response rating, Soybean (soybean (Glycine max); [7]) | Plant response rating, Kochia (kochia (Bassia scoparia) [1]; [8]) | Plant response rating, Kochia (kochia (Bassia scoparia) [2]; 500 g ai/ha, 0 to 100 scale) | Plant response rating, Oat, Wild [3, 8] | Plant response rating, Soybean (soybean (Glycine max); [8]) | Plant response rating, Kochia (kochia (Bassia scoparia) [2]; [9])
CCC1CC(c2cc(NS(=O)(=O)C(F)(F)F)c(C)cc2C)=NO1 (stereo not shown) [Compound 375] | 0 | 70 | 0 | 60 | 0 | 20 | 0 | 30 | – | – | – | – | – | – | – | – | –
COC1CCC2(CC1)CCN(c1cc(NS(=O)(=O)C(F)(F)F)c(C)cc1C)C2=O (stereo not shown) [Compound 398] | 40 | 50 | 20 | – | 20 | 70 | 70 | 90 | 70 | – | – | – | – | – | – | – | –
Cc1cc(C)c(N2Cc3cccc(Br)c3C2=O)cc1NS(=O)(=O)Cl [Compound 415] | 10 | – | 40 | – | – | – | – | – | 70 | 60 | 80 | 0 | – | – | – | – | –
C#CCN(C)C(=O)c1cc(NS(=O)(=O)C(F)(F)F)c(C)c(C)c1C [Compound 368] | 20 | 90 | 60 | 80 | 10 | 20 | 90 | 100 | – | – | – | – | – | – | – | – | –
Cc1ccc(C2=NOC3CCCC23)cc1NS(=O)(=O)C(F)(F)F (stereo not shown) [Compound 377] | 0 | 20 | 20 | 30 | 0 | 0 | 0 | 0 | – | – | – | – | – | – | – | – | –
Cc1c(C(=O)N2CCC(C)CC2)cc(N(COC(=O)C(C)(C)C)S(=O)(=O)C(F)(F)F)c(C)c1C [Compound 369] | 0 | 0 | 0 | 50 | 0 | 20 | 0 | 30 | – | – | – | – | – | – | – | – | –
Cc1c(C2=NOC3(CCCC3)C2)cc(N(COC(=O)C(C)(C)C)S(=O)(=O)C(F)(F)F)c(C)c1C [Compound 382] | 0 | 0 | 0 | – | 20 | 40 | 0 | 0 | 30 | – | – | – | – | – | – | – | –
Cc1cc(C)c(N2CCC3(CCC(C)CC3)C2=O)cc1NS(=O)(=O)C(F)(F)F (stereo not shown) [Compound 402] | 0 | 30 | 10 | – | 50 | 70 | 10 | 80 | 50 | – | – | – | – | – | – | – | –
Cc1cc(Cl)c(NS(=O)(=O)C(F)(F)F)cc1N1CCC2(CCCCC2)C1=O [Compound 393] | 60 | 80 | 20 | – | 10 | 70 | 60 | 80 | 60 | – | – | – | – | – | – | – | –
CCOC(=O)N(c1cc(C2=NOC3CCCC23)c(CC)cc1C)S(=O)(=O)C(F)(F)F (stereo not shown) [Compound 379] | 0 | 10 | 0 | 40 | 0 | 20 | 0 | 0 | – | – | – | – | – | – | – | – | –
Cc1cc(Cl)c(NS(=O)(=O)C(F)(F)F)cc1N1CC2(CCCCC2)OC1=O [Compound 394] | 30 | 60 | 40 | – | 20 | 90 | 50 | 60 | 80 | – | – | – | – | – | – | – | –
COC1CCN(C(=O)c2cc(NS(=O)(=O)C(F)(F)F)c(C)c(C)c2C)CC1 [Compound 367] | 0 | 20 | 20 | 30 | 20 | 30 | 0 | 90 | – | – | – | – | – | – | – | – | –
Cc1cc(C)c(N(COC(=O)C(C)(C)C)S(=O)(=O)C(F)(F)F)cc1N1CCC2(CCC(C)CC2)C1=O (stereo not shown) [Compound 401] | 0 | 0 | 10 | – | 0 | 0 | 0 | 0 | 30 | – | – | – | – | – | – | – | –
Cc1cc(C)c(N(COC(=O)C(C)(C)C)S(=O)(=O)C(F)(F)F)cc1N1CCC2(CCC(F)(F)CC2)C1=O [Compound 397] | – | 90 | – | – | – | 20 | – | 40 | 90 | – | – | – | 100 | 90 | 90 | 80 | –
Cc1cc(C)c(C2=NOC3OCCCC23)cc1NS(=O)(=O)C(F)(F)F (stereo not shown) [Compound 372] | 0 | 70 | 0 | 0 | 0 | 20 | 0 | 50 | – | – | – | – | – | – | – | – | –
Cc1c(NS(=O)(=O)C(F)(F)F)cc(C(=O)N2CCSCC2)c(C)c1C [Compound 283] | 30 | 90 | – | 60 | – | 0 | 0 | 50 | – | – | – | – | – | – | – | – | 20
Cc1cc(C)c(N2CCC3(CCC(C(F)(F)F)CC3)C2=O)cc1NS(=O)(=O)C(F)(F)F (stereo not shown) [Compound 400] | 0 | 20 | 20 | – | 50 | 90 | 50 | 50 | 70 | – | – | – | – | – | – | – | –
COc1cccc2c1C(=O)N(c1cc(N(COC(=O)C(C)(C)C)S(=O)(=O)Cl)c(C)cc1C)C2 [Compound 413] | 70 | – | 20 | – | – | – | – | – | 80 | 90 | 0 | 50 | – | – | – | – | –
Cc1c(C(=O)N2C[C@@H](C)O[C@H](C)C2)cc(N(COC(=O)C(C)(C)C)S(=O)(=O)C(F)(F)F)c(C)c1C (relative stereo) [Compound 373] | 0 | 0 | 0 | 10 | 0 | 0 | 0 | 10 | – | – | – | – | – | – | – | – | –
Cc1cc(C)c(N(COC(=O)C(C)(C)C)S(=O)(=O)C(F)(F)F)cc1N1CCC2(CCC(C(F)(F)F)CC2)C1=O (stereo not shown) [Compound 403] | 0 | 0 | 10 | – | 0 | 10 | 0 | 0 | 40 | – | – | – | – | – | – | – | –
Cc1c(C(=O)N2CCSCC2)cc(N(COC(=O)C(C)(C)C)S(=O)(=O)C(F)(F)F)c(C)c1C [Compound 285] | 20 | 70 | – | 90 | 0 | 20 | 0 | 0 | – | – | – | – | – | – | – | – | 10
CCOC(=O)N(c1cc(C(=O)N2CCSCC2)c(C)c(C)c1C)S(=O)(=O)C(F)(F)F [Compound 286] | 0 | 80 | – | 50 | 0 | 0 | 0 | 40 | – | – | – | – | – | – | – | – | 20
CCOC(=O)N(c1cc(C(=O)N2C[C@@H](C)O[C@H](C)C2)c(C)c(C)c1C)S(=O)(=O)C(F)(F)F (relative stereo) [Compound 374] | 0 | 0 | 0 | 10 | 0 | 30 | 0 | 70 | – | – | – | – | – | – | – | – | –
Cc1cc(C)c(N(COC(=O)C(C)(C)C)S(=O)(=O)C(F)(F)F)cc1C1=NOC(C(C)C)C1 (stereo not shown) [Compound 383] | 0 | 0 | 20 | – | 0 | 30 | 0 | 0 | 20 | – | – | – | – | – | – | – | –
CCc1cc(C)c(N(COC(=O)C(C)(C)C)S(=O)(=O)C(F)(F)F)cc1C1=NOC2CCCC12 (stereo not shown) [Compound 378] | 0 | 20 | 0 | 60 | 10 | 40 | 0 | 0 | – | – | – | – | – | – | – | – | –
C#CCN(C)C(=O)c1cc(N(COC(=O)C(C)(C)C)S(=O)(=O)C(F)(F)F)c(C)c(C)c1C [Compound 371] | 0 | 70 | 40 | 70 | 0 | 0 | 0 | 60 | – | – | – | – | – | – | – | – | –
Cc1c(NS(=O)(=O)C(F)(F)F)cc(C(=O)N2CCC(C)CC2)c(C)c1C [Compound 366] | 0 | 30 | 0 | 30 | 10 | 30 | 0 | 50 | – | – | – | – | – | – | – | – | –
